Measured values: patent publication US11013706B2, “Non-pharmaceutical bactericidal composition against Helicobacter pylori” (ECO-GEO BIO-TECHNOLOGY COMPANY LIMITED., priority 2019, dated 2021)

Assays:
[1] = test system: Helicobacter pylori strain 26695 (ATCC700392); experiment: Embodiment 4: antibacterial experiment against Helicobacter pylori, malate, lactate, citrate and phosphate buffer combinations with ascorbic acid (viable count); type: cell-based
Protocol: The bacteria strain used in the experiment was Helicobacter pylori strain 26695 (ATCC700392), and the bacteria were subcultured on Brucella solid medium (Brucella broth 28 g/L, Agar 15 g/L and 10% (v/v) Horse serum, pH 7.0). After the bacteria were seeded by streaking method, they were cultured in a humidified anaerobic chamber at 37° C. for 72 hours using a microaerobic bag (Genbox microaer, BioMerieux, 96125). […] Brucella broth containing 10 mg/mL of NaHCO3 was added to the Helicobacter pylori subcultured for 72 hours, bacterial concentration was adjusted to 10^7-10^8 CFU/mL as a bacterial solution, the bacterial solution was mixed with each culture solution in a 1:1 ratio, and the mixture was incubated at 37° C. in a humidified anaerobic chamber using a micro-aerobic bag (Genbox microaer, BioMerieux, 96125). […] The malate buffer combination and the lactate buffer combination were prepared by mixing malic acid and sodium malate, and lactic acid and sodium lactate, respectively, in the same way. The phosphate buffer solutions were prepared by mixing KH2PO4 and Na2HPO4 in different ratios according to their pH values, and the unmodulable portion was prepared by HCl and NaOH to reach a constant pH value. The pH of the pure medium was adjusted with HCl and NaOH. […] Finally, the viable count of each culture medium was calculated.

[2] = test system: Helicobacter pylori strain 26695 (ATCC700392); experiment: Embodiment 1: antibacterial experiment against Helicobacter pylori, citrate and phosphate buffer combinations with or without ascorbic acid (viable count); type: cell-based

In the case of `O=C1O[C@H]([C@@H](O)CO)C(O)=C1O` [ascorbic acid, L-Ascorbic acid], the “effect of the ascorbic acid on the sterilization effect of the citrate or the malate buffer combination” value ([1]; comparing Embodiment 3 and Embodiment 4) is reported as “synergistic effect”, the “effect of the ascorbic acid added to the phosphate buffer combination or water” value ([1]; presence of bicarbonate, Embodiments 3 and 4) is reported as “neither bactericidal effect nor synergistic effect” and the “effect of the ascorbic acid on the sterilization of the citrate buffer combination” value ([2]; comparing C3 with C3V3000, and C4 with C4V3000) is reported as “synergistic effect”. For the same molecule, the “effect of the ascorbic acid added to the phosphate buffer combination or water” value ([2]; presence of bicarbonate, Embodiment 1) was “neither the bactericidal effect nor the synergistic effect”.
